Assay results from PubChem BioAssay AID330 (DTP/NCI, 2004).
Where “and” joins values, the source holds several entries; their conditions need not be identical. Equal entries are not always repeated. Inconclusive results and toxic doses are left out.

System: P388 leukemia ip, CD2F1 mice, survival T/C
Assay: NCI In Vivo Anticancer Drug Screen. Data for tumor model P388 Leukemia (intraperitoneal) in CD2F1 (CDF1) mice
Details: endpoint: median survival time, higher = longer survival
Method in brief: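 Mice carrying the transplanted tumor received test compound or vehicle. Survival was recorded in each group, and the value is the treated-group measurement divided by that of the vehicle-treated control group.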

[1] = dose: 60.0 mg/kg/injection, schedule: Q01DX005 (ip), vehicle: Klucel (hydroxypropylcellulose) (HPC)
[2] = dose: 120.0 mg/kg/injection, schedule: Q01DX005 (ip), vehicle: Klucel (hydroxypropylcellulose) (HPC)
[3] = dose: 12.5 mg/kg/injection, schedule: Q01DX005 (ip), vehicle: Klucel (hydroxypropylcellulose) (HPC)
[4] = dose: 25.0 mg/kg/injection, schedule: Q01DX005 (ip), vehicle: Klucel (hydroxypropylcellulose) (HPC)
[5] = dose: 50.0 mg/kg/injection, schedule: Q01DX005 (ip), vehicle: Klucel (hydroxypropylcellulose) (HPC)
[6] = dose: 100.0 mg/kg/injection, schedule: Q01DX005 (ip), vehicle: Klucel (hydroxypropylcellulose) (HPC)

CCOC(=O)CCCCCCCCNC(=S)N1c2c(nc(N)[nH]c2=O)NCC1CNc1ccc(C(=O)NC(CCC(=O)O)C(=O)O)cc1 (stereo not given)
T/C (dose: 50.0 mg/kg/injection, schedule: Q01DX009 (ip), vehicle: Klucel (hydroxypropylcellulose) (HPC)): 90 % of control | T/C (dose: 100.0 mg/kg/injection, schedule: Q01DX009 (ip), vehicle: Klucel (hydroxypropylcellulose) (HPC)): 110 % of control | T/C (dose: 200.0 mg/kg/injection, schedule: Q01DX009 (ip), vehicle: Klucel (hydroxypropylcellulose) (HPC)): 99 % of control

CCOC1=NC(C)C(C)N1 (stereo not given)
T/C (dose: 25.0 mg/kg/injection, schedule: Q01DX001 (ip), vehicle: saline): 101 % of control | T/C (dose: 50.0 mg/kg/injection, schedule: Q01DX001 (ip), vehicle: saline): 101 % of control | T/C (dose: 100.0 mg/kg/injection, schedule: Q01DX001 (ip), vehicle: saline): 108 % of control and 97 % of control

CCCCCCC(=O)CC(SCCS)c1ccc(Cl)c(Cl)c1 (stereo not given)
T/C (dose: 50.0 mg/kg/injection, schedule: Q01DX009 (ip), vehicle: saline): 102 % of control | T/C (dose: 100.0 mg/kg/injection, schedule: Q01DX009 (ip), vehicle: saline): 89 % of control

COc1ccc(-n2c(C)c(COC(=O)NC(C)C)c(COC(=O)NC(C)C)c2C)cc1
T/C (dose: 20.0 mg/kg/injection, schedule: Q01DX005 (ip), vehicle: Klucel (hydroxypropylcellulose) (HPC)): 163 % of control | T/C (dose: 40.0 mg/kg/injection, schedule: Q01DX005 (ip), vehicle: Klucel (hydroxypropylcellulose) (HPC)): 172 % of control | T/C [1]: 150 % of control and 186 % of control | T/C [2]: 181 % of control

N#CNC(c1ccccc1)(c1ccccc1)c1ccccc1
T/C (dose: 50.0 mg/kg/injection, schedule: Q01DX005 (ip), vehicle: saline with Tween-80): 98 % of control | T/C (dose: 100.0 mg/kg/injection, schedule: Q01DX005 (ip), vehicle: saline with Tween-80): 98 % of control | T/C (dose: 200.0 mg/kg/injection, schedule: Q01DX005 (ip), vehicle: saline with Tween-80): 94 % of control

CC(C)(C(=O)O)n1c(-c2ccccc2)c(-c2ccccc2)oc1=O
T/C (dose: 8.75 mg/kg/injection, schedule: Q01DX005 (ip), vehicle: Klucel (hydroxypropylcellulose) (HPC)): 106 % of control | T/C (dose: 17.5 mg/kg/injection, schedule: Q01DX005 (ip), vehicle: Klucel (hydroxypropylcellulose) (HPC)): 106 % of control | T/C (dose: 35.0 mg/kg/injection, schedule: Q01DX005 (ip), vehicle: Klucel (hydroxypropylcellulose) (HPC)): 106 % of control

O=C(Nc1ccc(N=C(NC2CCCCC2)c2ccccc2)cc1)c1ccc(C(=O)Nc2ccc(N=C(NC3CCCCC3)c3ccccc3)cc2)cc1
T/C [3]: 104 % of control | T/C [4]: 103 % of control | T/C [5]: 104 % of control and 111 % of control | T/C [6]: 91 % of control | T/C (dose: 200.0 mg/kg/injection, schedule: Q01DX005 (ip), vehicle: Klucel (hydroxypropylcellulose) (HPC)): 106 % of control

CC(C)(C)NC(=O)NS(=O)(=O)c1cccnc1Sc1ccccc1Cl
T/C [1]: 107 % of control | T/C [2]: 105 % of control | T/C (dose: 240.0 mg/kg/injection, schedule: Q01DX005 (ip), vehicle: Klucel (hydroxypropylcellulose) (HPC)): 99 % of control

CCC[CH2][Sn]1([CH2]CCC)[O]CCN2CCN(CC[O]1)CC2
T/C (dose: 3.75 mg/kg/injection, schedule: Q01DX005 (ip), vehicle: saline with Tween-80): 102 % of control | T/C (dose: 7.5 mg/kg/injection, schedule: Q01DX005 (ip), vehicle: saline with Tween-80): 100 % of control | T/C (dose: 15.0 mg/kg/injection, schedule: Q01DX005 (ip), vehicle: saline with Tween-80): 100 % of control

CC(CCO)CCCO (stereo not given)
T/C (dose: 60.0 mg/kg/injection, schedule: Q01DX005 (ip), vehicle: saline with Tween-80): 97 % of control | T/C (dose: 120.0 mg/kg/injection, schedule: Q01DX005 (ip), vehicle: saline with Tween-80): 95 % of control | T/C (dose: 240.0 mg/kg/injection, schedule: Q01DX005 (ip), vehicle: saline with Tween-80): 101 % of control

CCCCCCC(=O)/C=C/C=C/c1ccccc1
T/C (dose: 100.0 mg/kg/injection, schedule: Q04DX003 (ip), vehicle: saline with Tween-80): 100 % of control | T/C (dose: 200.0 mg/kg/injection, schedule: Q04DX003 (ip), vehicle: saline with Tween-80): 103 % of control | T/C (dose: 400.0 mg/kg/injection, schedule: Q04DX003 (ip), vehicle: saline with Tween-80): 92 % of control

O=C(Nc1ccccc1)Oc1cccc(/C=N/Sc2ccccc2)c1
T/C (dose: 50.0 mg/kg/injection, schedule: Q01DX009 (ip), vehicle: saline with Tween-80): 98 % of control

COc1cccc(CN2CCN(N)CC2)c1
T/C [3]: 100 % of control | T/C [4]: 104 % of control | T/C [5]: 107 % of control | T/C [6]: 100 % of control
